Source: paper PMC4661079 (Bioorganic & medicinal chemistry, 2015)

How the values were obtained:
[1] = target: T1, TAK1 (Homo sapiens, UniProt O43318); test: in vitro TAK1 inhibition assay; format: biochemical; conditions: for TAK1 inhibitory activity, result in words: in vitro TAK1 inhibition
T1 sequence (O43318 1-303 limits assumed): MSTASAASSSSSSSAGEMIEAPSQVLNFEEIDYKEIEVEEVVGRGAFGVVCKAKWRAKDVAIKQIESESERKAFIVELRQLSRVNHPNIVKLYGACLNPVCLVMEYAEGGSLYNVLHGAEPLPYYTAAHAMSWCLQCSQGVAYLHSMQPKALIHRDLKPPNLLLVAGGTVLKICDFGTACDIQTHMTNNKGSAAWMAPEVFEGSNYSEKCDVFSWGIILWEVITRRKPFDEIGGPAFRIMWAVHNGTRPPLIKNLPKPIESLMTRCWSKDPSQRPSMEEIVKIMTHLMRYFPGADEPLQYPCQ
T1 sequence (Q15750 437-504 partner limits assumed): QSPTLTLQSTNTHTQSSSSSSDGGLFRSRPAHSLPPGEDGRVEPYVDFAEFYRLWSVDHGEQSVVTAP

[2] = tested on: 85 kinases; conditions: 1 μM concentration; ref 14 (Wu et al.); cited from earlier work

| Structure (SMILES) | TAK1 inhibitory activity, result in words [1] | other results |
| --- | --- | --- |
| COc1cc(O)c2c(c1)/C=C/C[C@@H]1OC(C)(C)O[C@@H]1C(=O)/C=C\C[C@H](C)OC2=O [Compound 16, (3aS,5Z,8S,15E,17aS)-11-Hydroxy-13-methoxy-2,2,8-trimethyl-7,8,17,17a-tetrahydro-4H-benzo[c][1,3]dioxolo[4,5-h][1]oxacyclotetradecine-4,10(3aH)-dione] |  | reduction of TAK1 inhibitory activity relative to 1 ([1]; compared with 1): more than 30 fold |
| CC=C/C=C\C(=O)[C@@H](O)[C@@H](O)C/C=C/c1cc(OC)cc(OC)c1C(=O)OC (stereo in doubt) [Compound 10, Methyl 2-((1E,4S,5S,7Z,9Z)-4,5-dihydroxy-6-oxoundeca-1,7,9-trien-1-yl)-4,6-dimethoxybenzoate] | inability |  |
| COc1c(Br)c(O)c2c(c1Br)/C=C/C[C@H](O)[C@H](O)C(=O)/C=C\C[C@H](C)OC2=O [Compound 14, (3S,5Z,8S,9S,11E)-13,15-Dibromo-8,9,16-trihydroxy-14methoxy-3-methyl-3,4,9,10-tetrahydro-1H-benzo[c][1]oxacyclotetradecine-1,7(8H)-dione] | least active |  |
| COc1cc(O)cc2c1C(=O)O[C@@H](C)CCCCC/C=C/C(=O)C2 [Compound 8, greensborone C] | diminished activity |  |
| COc1cc(O)c2c(c1)/C=C/C[C@H](O)[C@H](O)C(=O)/C=C\C[C@H](C)OC2=O [Compound 1, (5Z)-7-oxozeaenol] |  | number of kinases with at least 50% inhibition out of 85 kinases tested [2]: 12 |
| COc1cc2c(c(O)c1Br)C(=O)O[C@@H](C)C/C=C\C(=O)[C@@H](O)[C@@H](O)C/C=C/2 [Compound 12, (3S,5Z,8S,9S,11E)-15-Bromo-8,9,16-trihydroxy-14-methoxy-3-methyl-3,4,9,10-tetrahydro-1H-benzo[c][1]oxacyclotetradecine-1,7(8H)-dione] | significantly less active |  |
| COc1cc(O)c2c(c1)/C=C/C[C@H](O)[C@H](O)C(=O)CCC[C@H](C)OC2=O [Compound 7, LL-Z164-1] | loss of activity |  |
| COc1cc(O)c2c(c1)/C=C/C[C@H](O)[C@H](O)[C@@H](O)/C=C/C[C@H](C)OC2=O [Compound 3, zeaenol] | loss of activity |  |
| COC1=CC(=O)C2=C(/C=C/C[C@H](O)[C@H](O)C(=O)/C=C\C[C@H](C)OC2=O)C1(F)F [Compound 11, (3S,5Z,8S,9S,11E)-13,13-Difluoro-8,9-dihydroxy-14-methoxy-3-methyl-3,4,9,10-tetrahydro-1H benzo[c][1]oxacyclotetradecine-1,7,16(8H,13H)-trione] | statistically equipotent to 1 | IC50 [1]: 77 nM |
| COc1cc(O)c2c(c1Br)/C=C/C[C@H](O)[C@H](O)C(=O)/C=C\C[C@H](C)OC2=O [Compound 13, (3S,5Z,8S,9S,11E)-13-Bromo-8,9,16-trihydroxy-14-methoxy-3-methyl-3,4,9,10-tetrahydro-1H-benzo[c][1]oxacyclotetradecine-1,7(8H)-dione] |  | times less active than difluoro derivative 11 ([1]; TAK1 inhibition, compared with 11): 5 times |
| COc1cc(O)c2c(c1)[C@H]1O[C@@H]1C[C@H](O)[C@H](O)C(=O)CCC[C@H](C)OC2=O [Compound 5, dihydrohypothemycin] | loss of activity |  |
